From patent US8778621B2, “Phosphodiesterase 4D7 as marker for malignant, hormone-sensitive prostate cancer” (Koninklijke Philips N.V., priority 2009, dated 2014)
Read-outs that look alike come from different tables or passages of the source.

How the values were obtained:
lung PDE2 = target: T1, lung PDE2; details: cited from earlier work
T1 construct: from tissue; host or cells: lung

[1] = test system: isolated human peripheral blood monocytes, eosinophils and T cells; details: cited from earlier work
platelet PDE-V = target: T2, platelet PDE-V (Homo sapiens, UniProt O76074); details: cited from earlier work
T2 construct: from tissue; host or cells: platelets

[2] = target: cAMP phosphodiesterase (PDE4); details: cited from earlier work
[3] = in vivo; cited from earlier work
lung PDE1 = details: cited from earlier work
human lung PDE4 = details: cited from earlier work
heart PDE3 = details: cited from earlier work
[4] = target: [3H]-rolipram binding to rat brain; details: read-out: IC50 for inhibition of [3H]-rolipram binding to rat brain; cited from earlier work
PDEIIA = PDEIIA (Homo sapiens, UniProt O00408); details: cited from earlier work
PDEVIIIA = PDEVIIIA (Homo sapiens, UniProt O60658); details: cited from earlier work
PDEVIIB = PDEVIIB (Homo sapiens, UniProt Q9NP56); details: cited from earlier work
PDEIXA = PDEIXA (Homo sapiens, UniProt O76083); details: cited from earlier work
PDEXA = PDEXA (Homo sapiens, UniProt Q9Y233); details: cited from earlier work
PDEXIA = PDEXIA (Homo sapiens, UniProt Q9HCR9); details: cited from earlier work
PDEIIIB = PDEIIIB (Homo sapiens, UniProt Q13370); details: cited from earlier work
PDEIB = PDEIB (Homo sapiens, UniProt Q01064); details: cited from earlier work
PDEVA = PDEVA (Homo sapiens, UniProt O76074); details: cited from earlier work
[5] = test system: LNCaP prostate cancer cells; test: MTT growth assay, A590 Abs end-point; format: cell-based; details: Homo sapiens
Description: The growth data is expressed as a percentage of as a percentage of the “untreated” A590 Abs reading after 48 hours. The cells were assayed without the presence of androgens.
For the MTT growth assay LNCaP cells were grown at 37° C., 5% CO2, from a seeding value of 5000 cells. The final plating volume was 200 μl. The proliferation assay was obtained from Promega (Cat no G3582). The growth data were obtained during A590 Abs measurements. Measurements were conducted 48 hours after the initial plating. The cells were assayed without the presence of androgens. The significance of final A590 readings was calculated using T-Test of Triplicate Values only. […] The level of average inhibition of cell proliferation is around 50%, which would lead to an IC50 of the compound of ˜10 μM. […]

[6] = test system: LNCaP prostate cancer cells; test: Xcelligence assay, real time electrical impedance measurement of cell growth; format: cell-based; details: Homo sapiens
Description: The growth data is expressed as a percentage of “untreated” slope value obtained during real time electrical impedance measurements. Measurements were conducted 12 hours after the initial plating down phase of the assay, i.e. 12 hours-60 hours—so as to examine proliferative potential and not morphological change. The cells were assayed without the presence of androgens.
For the Xcelligence assay LNCaP cells were grown at 37° C., 5% CO2, from a seeding value of 5000 cells. The final plating volume was 200 μl. E-Plate 96 well plates were obtained from Roche (Cat No 05232368001). The growth data were obtained during real time electrical impedance measurements. Measurements were conducted 12 hours after the initial plating down phase of the assay, i.e. 12 hours-60 hours—so as to examine proliferative potential and not morphological change. The cells were assayed without the presence of androgens. The significance of differential growth rates were calculated using T-Test of Triplicate Values only. […] The level of average inhibition of cell proliferation is around 50%, which would lead to an IC50 of the compound of ˜10 μM. Compared to an in vitro IC50 for 50% inhibition of PDE4 in vitro of ˜2 μm, an in vivo IC50 of 10 μM let us conclude that the proliferation inhibition effect is largely due to its PDE4 activity.

[7] = in vivo; cited from earlier work; remark: listed apart in the source
[8] = PDE4 inhibitors, target not given, read-out: IC 50 (Table of Inhibitors)

Chain of PDEIXA (O76083 whole entry): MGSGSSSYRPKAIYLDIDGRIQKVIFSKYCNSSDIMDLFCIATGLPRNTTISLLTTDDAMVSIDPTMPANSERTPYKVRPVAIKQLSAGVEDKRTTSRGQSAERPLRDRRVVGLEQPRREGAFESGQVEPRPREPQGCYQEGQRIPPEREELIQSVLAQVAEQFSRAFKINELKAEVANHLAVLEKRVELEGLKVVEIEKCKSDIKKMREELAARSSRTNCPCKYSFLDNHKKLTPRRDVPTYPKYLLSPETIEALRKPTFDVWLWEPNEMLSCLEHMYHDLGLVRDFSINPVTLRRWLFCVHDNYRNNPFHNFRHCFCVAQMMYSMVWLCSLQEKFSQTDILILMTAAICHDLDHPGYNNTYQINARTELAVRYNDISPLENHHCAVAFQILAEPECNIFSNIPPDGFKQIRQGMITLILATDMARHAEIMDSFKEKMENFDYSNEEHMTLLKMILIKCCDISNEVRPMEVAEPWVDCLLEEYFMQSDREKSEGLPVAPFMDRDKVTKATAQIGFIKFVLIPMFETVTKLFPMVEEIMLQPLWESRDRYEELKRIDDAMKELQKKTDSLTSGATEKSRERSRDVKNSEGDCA
Chain of PDEVIIB (Q9NP56 whole entry): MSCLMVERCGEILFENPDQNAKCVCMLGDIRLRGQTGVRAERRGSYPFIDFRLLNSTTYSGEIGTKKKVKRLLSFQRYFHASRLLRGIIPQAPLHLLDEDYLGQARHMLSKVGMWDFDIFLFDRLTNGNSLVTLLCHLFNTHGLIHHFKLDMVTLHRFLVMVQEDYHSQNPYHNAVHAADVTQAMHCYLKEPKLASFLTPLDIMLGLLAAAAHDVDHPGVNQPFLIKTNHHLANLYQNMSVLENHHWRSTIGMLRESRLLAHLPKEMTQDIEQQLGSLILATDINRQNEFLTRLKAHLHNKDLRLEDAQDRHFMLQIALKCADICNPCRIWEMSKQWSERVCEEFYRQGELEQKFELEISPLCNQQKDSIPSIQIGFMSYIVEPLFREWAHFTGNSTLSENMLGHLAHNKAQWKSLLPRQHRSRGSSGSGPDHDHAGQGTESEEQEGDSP
Chain of PDEXA (Q9Y233 whole entry): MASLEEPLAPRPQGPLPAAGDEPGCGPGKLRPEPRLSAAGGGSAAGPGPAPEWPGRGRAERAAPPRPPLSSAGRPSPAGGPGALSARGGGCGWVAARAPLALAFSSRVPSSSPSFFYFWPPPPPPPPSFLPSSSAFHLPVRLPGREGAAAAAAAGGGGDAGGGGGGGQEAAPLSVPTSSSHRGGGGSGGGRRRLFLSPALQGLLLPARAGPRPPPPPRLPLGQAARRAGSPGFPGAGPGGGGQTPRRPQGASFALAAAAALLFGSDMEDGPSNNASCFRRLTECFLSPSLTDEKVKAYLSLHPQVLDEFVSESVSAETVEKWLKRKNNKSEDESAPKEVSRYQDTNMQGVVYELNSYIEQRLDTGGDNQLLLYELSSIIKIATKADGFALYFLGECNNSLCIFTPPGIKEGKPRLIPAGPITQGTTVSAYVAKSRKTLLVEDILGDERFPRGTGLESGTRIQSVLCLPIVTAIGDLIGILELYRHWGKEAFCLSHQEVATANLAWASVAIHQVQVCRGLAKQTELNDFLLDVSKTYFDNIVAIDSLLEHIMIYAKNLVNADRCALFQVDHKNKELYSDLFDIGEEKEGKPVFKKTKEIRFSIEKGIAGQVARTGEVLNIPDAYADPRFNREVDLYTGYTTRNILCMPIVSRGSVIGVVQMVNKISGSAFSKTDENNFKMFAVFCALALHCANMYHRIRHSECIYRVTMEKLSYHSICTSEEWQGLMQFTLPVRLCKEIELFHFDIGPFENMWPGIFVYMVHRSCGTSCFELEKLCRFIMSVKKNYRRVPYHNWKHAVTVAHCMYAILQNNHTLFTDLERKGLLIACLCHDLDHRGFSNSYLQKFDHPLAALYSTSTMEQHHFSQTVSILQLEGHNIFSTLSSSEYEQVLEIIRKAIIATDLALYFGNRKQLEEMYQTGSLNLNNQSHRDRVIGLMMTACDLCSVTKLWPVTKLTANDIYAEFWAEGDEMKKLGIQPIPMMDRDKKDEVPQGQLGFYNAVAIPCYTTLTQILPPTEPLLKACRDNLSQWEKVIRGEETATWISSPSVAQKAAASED
Chain of PDEIB (Q01064 whole entry): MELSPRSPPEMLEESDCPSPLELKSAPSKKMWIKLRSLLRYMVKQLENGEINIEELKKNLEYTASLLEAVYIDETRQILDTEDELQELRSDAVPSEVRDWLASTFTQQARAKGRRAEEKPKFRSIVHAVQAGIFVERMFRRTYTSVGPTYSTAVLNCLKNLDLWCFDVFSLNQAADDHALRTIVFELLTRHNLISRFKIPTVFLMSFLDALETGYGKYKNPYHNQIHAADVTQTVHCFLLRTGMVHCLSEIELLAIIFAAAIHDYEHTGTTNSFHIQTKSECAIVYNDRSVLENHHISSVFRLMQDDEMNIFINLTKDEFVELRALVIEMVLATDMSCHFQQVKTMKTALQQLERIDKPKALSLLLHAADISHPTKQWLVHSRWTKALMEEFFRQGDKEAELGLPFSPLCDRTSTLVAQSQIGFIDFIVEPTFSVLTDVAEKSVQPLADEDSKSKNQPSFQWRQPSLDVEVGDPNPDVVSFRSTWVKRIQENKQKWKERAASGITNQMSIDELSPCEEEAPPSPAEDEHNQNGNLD
Chain of PDEXIA (Q9HCR9 whole entry): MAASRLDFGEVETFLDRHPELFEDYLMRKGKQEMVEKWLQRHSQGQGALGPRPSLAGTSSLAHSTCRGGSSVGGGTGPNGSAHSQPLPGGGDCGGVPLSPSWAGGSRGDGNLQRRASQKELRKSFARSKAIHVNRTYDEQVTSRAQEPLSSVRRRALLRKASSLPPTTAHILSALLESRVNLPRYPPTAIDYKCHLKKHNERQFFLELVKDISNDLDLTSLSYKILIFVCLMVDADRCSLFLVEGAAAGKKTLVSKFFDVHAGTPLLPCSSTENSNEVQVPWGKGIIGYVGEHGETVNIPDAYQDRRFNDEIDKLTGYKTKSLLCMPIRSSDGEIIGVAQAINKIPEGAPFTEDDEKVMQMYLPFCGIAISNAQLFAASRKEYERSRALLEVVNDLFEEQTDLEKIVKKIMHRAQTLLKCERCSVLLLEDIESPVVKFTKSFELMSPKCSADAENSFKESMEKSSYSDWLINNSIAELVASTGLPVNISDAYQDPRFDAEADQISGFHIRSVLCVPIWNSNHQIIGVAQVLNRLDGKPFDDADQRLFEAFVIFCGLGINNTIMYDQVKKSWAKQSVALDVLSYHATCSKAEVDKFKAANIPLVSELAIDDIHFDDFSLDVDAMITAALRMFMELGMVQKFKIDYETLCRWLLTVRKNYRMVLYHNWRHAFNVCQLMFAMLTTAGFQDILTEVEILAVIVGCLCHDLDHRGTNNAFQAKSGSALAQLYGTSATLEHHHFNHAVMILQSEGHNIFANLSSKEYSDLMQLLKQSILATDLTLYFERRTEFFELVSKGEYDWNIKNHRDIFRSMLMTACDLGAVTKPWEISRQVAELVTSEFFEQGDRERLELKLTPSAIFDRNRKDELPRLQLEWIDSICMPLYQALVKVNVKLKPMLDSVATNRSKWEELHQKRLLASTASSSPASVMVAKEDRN
T1 sequence (O00408 whole entry): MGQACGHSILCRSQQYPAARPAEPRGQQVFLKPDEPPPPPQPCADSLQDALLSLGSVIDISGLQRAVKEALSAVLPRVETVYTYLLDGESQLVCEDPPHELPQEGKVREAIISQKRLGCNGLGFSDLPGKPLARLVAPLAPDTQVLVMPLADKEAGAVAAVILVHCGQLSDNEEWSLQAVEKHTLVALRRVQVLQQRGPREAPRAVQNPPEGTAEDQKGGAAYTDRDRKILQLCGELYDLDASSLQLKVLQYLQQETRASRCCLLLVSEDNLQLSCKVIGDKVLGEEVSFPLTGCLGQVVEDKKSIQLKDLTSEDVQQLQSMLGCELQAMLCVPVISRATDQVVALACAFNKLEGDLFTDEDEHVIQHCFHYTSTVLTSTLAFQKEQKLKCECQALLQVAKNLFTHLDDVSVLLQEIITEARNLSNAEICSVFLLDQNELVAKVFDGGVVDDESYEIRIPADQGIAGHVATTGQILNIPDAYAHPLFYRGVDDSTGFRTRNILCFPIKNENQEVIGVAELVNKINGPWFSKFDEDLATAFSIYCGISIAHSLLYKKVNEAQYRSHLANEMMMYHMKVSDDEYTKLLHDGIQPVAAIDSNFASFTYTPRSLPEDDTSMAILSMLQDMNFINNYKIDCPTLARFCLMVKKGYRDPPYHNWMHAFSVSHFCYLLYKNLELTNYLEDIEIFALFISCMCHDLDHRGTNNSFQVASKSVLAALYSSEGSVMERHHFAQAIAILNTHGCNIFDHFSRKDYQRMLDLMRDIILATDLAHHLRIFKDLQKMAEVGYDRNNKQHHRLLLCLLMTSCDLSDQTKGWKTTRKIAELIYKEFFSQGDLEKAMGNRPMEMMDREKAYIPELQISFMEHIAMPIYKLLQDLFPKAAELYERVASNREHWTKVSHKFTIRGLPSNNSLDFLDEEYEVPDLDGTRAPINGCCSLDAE
Chain of PDEIIA (O00408 whole entry): as above

COc1ccc(C2CNC(=O)NC2)cc1O[C@H]1C[C@@H]2CC[C@H]1C2 [CP80633]
IC50 (lung PDE2): > 100 µM
hydrolysis of cAMP in blood cells [1]: inhibits hydrolysis of cAMP
IC50 (platelet PDE-V): > 100 µM
IC50 [2, 8]: 1.9 µM
anti-inflammatory and bronchodilatory effects [3]: anti-inflammatory and bronchodilatory effects in vivo
IC50 (lung PDE1): > 100 µM
IC50 (human lung PDE4): 1.9 µM
PDE4 isozyme selectivity (human lung PDE4): no significant PDE4 isozyme selectivity
IC50 (heart PDE3): > 100 µM

CCCn1c(=O)c(C)cn2nc(N)nc12 [ICI63197]
IC50 [4]: 0.035 µM
IC50 [2, 8]: 0.035 µM

CCOC(=O)c1c(C)nn(-c2cccc([N+](=O)[O-])c2)c1C [Phosphodiesterase 4 Inhibitor]
IC50 (PDEIIA): > 30 µM
IC50 (PDEVIIIA): > 30 µM
IC50 (PDEVIIB): > 30 µM
IC50 (PDEIXA): > 30 µM
IC50 (PDEXA): 6.9 µM
IC50 [2, 8]: 0.033 µM
IC50 (PDEXIA): > 30 µM
IC50 (PDEIIIB): > 30 µM
IC50 (PDEIB): > 30 µM
IC50 (PDEVA): > 30 µM

COc1ccc(C2CNC(=O)C2)cc1OC1CCCC1 (stereo not drawn) [Rolipram]
inhibition at 10 µM ([5]; 10 μM, 48 hours, without androgens, p<0.01, read-out: level of average inhibition of cell proliferation): ~50%
IC50 ([5]; end-point growth, concluded from 50% inhibition at 10 μM, read-out: IC50 of cell proliferation inhibition): ~10 µM
IC50 [2, 8]: 1 µM
IC50 ([2]; in vitro, read-out: in vitro IC50 for 50% inhibition of PDE4): ~2 µM
IC50 ([2]; read-out: IC50, PDE4): 2 µM
inhibition at 10 µM ([6]; 10 uM, 12-60 hours, without androgens, p<0.01, read-out: level of average inhibition of cell proliferation): ~50%
IC50 ([6]; real-time growth, concluded from 50% inhibition at 10 uM, read-out: IC50 of cell proliferation inhibition): ~10 µM

CCc1ccc2c(-c3cccc(Cl)c3)nc(=O)n(CC)c2n1 [YM976]
IC50 ([2]; read-out: IC50, PDE4): 0.0022 µM
emetogenic activity [7]: low emetogenic activity
